Assay [1] deals with T1, AgrA (C-terminal DNA-binding domain, AgrA_C) (Staphylococcus aureus, UniProt P0A0I7, C199S).
T1 sequence (P0A0I7 143-238 C199S): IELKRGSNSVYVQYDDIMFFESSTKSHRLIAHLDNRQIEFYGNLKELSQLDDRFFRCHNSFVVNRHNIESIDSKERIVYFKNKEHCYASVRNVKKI
Kind of assay: microscale thermophoresis (Alexa Fluor 647-labeled protein).

Assay [2] addresses AgrA (C-terminal DNA-binding domain, AgrA_C) (Staphylococcus epidermidis, UniProt Q8CNM5). Briefly: microscale thermophoresis; also EMSA (F19 blocks P3 DNA binding). In general terms: Microscale thermophoresis detects binding through changes in fluorescence in a small temperature gradient.

Structures are written as SMILES.

`CCCCCCc1cc(C(=O)COc2ccc(F)cc2F)c(O)cc1O` [F12]: the affinity in assay [1], expressed as Kd, was 4.5 ± 0.4 µM.
In the case of `CCCCCCc1cc(C(=O)COc2ccc(C(C)C)cc2)c(O)cc1O` [F19], the equilibrium dissociation constant (Kd) in assay [1] is 2.9 ± 0.4 µM; in assay [2], 2.7 ± 0.7 µM.

As usually defined, the Kd is the constant that tells how readily two partners part at equilibrium. Read a low Kd as higher affinity.

The values above are taken from article PMC6167350, “Small-molecule AgrA inhibitors F12 and F19 act as antivirulence agents against Gram-positive pathogens” (Scientific Reports, 2018).
